Experimental data reported in patent US20230048132A1, “CYCLIN-DEPENDENT KINASE INHIBITORS” (SPV THERAPEUTICS INC., priority 2018, published 2023).
“And” between values parts separate entries of the source, which are not always exact repeats. Equal values may be shown once. Read-outs that look alike come from different tables or passages of the source.

What was measured:
CDK9-CYCLINT1 = target: T1, CDK9-CYCLINT1 (Homo sapiens, UniProt P50750); assay: CDK inhibition assay (microfluidic LabChip, IC50 format); format: biochemical
T1 construct: purchased Carna
T1 sequence (P50750 whole entry): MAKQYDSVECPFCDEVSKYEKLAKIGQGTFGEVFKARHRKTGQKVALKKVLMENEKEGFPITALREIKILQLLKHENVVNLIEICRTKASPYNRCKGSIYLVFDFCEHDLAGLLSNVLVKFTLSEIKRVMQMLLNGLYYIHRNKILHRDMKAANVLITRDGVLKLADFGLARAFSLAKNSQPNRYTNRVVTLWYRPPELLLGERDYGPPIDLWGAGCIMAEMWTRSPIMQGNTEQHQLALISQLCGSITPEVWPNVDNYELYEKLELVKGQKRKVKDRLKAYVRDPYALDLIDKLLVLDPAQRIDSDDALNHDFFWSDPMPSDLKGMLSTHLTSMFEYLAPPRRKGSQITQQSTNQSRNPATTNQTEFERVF
T1 sequence (O60563 whole entry partner): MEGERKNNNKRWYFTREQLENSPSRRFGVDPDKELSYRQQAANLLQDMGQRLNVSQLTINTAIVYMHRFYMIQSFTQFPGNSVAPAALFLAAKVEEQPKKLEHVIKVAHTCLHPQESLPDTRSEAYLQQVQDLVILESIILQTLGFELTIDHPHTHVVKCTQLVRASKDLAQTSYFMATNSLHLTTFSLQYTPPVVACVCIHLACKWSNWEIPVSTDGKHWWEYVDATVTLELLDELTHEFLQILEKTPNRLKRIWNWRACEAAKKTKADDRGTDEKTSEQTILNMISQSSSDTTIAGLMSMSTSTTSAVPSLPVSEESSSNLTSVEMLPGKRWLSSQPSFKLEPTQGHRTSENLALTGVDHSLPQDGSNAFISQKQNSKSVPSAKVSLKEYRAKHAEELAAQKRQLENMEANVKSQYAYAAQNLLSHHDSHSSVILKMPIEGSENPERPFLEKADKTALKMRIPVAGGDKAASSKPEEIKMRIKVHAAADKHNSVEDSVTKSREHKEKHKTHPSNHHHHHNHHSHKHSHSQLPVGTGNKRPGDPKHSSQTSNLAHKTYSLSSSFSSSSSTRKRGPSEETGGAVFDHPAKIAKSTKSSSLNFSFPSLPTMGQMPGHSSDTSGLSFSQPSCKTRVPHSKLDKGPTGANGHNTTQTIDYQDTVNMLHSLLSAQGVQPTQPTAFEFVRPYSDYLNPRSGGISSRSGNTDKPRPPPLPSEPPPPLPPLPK

CDK2-CYCLINE = target: T2, CDK2-CYCLINE (Homo sapiens, UniProt P24941); assay: as above; format: biochemical; conditions: Table 3; purified enantiomers; read-out: CDK2-E (E1/E2)
T2 construct: purchased Millipore

CDK6-CYCLIND3 = target: T3, CDK6-CYCLIND3 (Homo sapiens, UniProt Q00534); assay: as above; format: biochemical
T3 construct: purchased Carna
T3 sequence (Q00534 whole entry): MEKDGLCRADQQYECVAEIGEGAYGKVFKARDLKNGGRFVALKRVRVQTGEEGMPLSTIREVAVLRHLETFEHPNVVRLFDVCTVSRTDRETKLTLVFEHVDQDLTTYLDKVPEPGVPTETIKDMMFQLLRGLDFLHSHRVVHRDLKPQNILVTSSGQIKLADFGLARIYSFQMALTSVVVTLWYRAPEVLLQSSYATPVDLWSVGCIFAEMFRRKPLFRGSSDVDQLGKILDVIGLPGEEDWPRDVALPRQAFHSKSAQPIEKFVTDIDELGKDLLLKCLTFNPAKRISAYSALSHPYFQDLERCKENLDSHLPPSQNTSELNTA
T3 sequence (P30281 whole entry partner): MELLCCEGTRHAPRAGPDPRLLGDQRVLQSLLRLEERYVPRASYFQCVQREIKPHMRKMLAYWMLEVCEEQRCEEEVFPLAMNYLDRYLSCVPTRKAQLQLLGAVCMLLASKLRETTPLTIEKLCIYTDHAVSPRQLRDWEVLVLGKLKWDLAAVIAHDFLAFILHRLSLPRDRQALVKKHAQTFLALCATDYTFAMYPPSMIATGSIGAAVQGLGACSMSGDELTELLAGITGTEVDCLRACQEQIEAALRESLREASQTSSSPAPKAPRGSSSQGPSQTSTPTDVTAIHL

CDK4-CYCLIND1 = CDK4-CYCLIND1 (Homo sapiens, UniProt P11802); assay: as above
Sequence of CDK4-CYCLIND1 (P11802 whole entry): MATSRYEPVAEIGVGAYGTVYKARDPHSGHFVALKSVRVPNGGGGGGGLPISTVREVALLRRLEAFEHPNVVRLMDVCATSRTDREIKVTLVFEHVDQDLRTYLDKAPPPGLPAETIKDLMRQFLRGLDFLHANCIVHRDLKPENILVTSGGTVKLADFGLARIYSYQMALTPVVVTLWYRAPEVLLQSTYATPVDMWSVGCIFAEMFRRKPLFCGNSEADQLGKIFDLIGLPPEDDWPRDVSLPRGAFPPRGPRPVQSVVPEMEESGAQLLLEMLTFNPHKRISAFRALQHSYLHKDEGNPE
Sequence of CDK4-CYCLIND1 (P24385 whole entry partner): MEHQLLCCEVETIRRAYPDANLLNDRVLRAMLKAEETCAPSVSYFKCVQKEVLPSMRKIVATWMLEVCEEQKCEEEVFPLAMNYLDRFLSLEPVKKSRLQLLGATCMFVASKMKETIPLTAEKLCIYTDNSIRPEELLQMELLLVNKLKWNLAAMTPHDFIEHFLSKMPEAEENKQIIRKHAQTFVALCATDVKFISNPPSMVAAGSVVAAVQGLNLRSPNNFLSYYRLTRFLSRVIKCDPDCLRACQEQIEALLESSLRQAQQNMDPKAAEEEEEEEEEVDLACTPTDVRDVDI

CDK2-CYCLINA = target: T4, CDK2-CYCLINA (Homo sapiens, UniProt P24941); assay: as above; format: biochemical
T4 construct: purchased Millipore

CDK7 CyclinH = CDK7 CyclinH (Homo sapiens, UniProt P50613); assay: as above; format: biochemical
Sequence of CDK7 CyclinH (P50613 whole entry): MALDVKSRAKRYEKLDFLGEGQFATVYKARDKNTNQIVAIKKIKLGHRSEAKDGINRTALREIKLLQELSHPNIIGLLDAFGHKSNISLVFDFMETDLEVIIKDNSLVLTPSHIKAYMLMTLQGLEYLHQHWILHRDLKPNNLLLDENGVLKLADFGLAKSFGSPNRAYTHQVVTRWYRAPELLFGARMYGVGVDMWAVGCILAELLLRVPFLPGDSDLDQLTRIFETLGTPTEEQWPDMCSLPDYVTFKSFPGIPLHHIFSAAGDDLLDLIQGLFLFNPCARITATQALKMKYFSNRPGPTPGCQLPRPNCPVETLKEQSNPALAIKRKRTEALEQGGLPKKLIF
Sequence of CDK7 CyclinH (P51946 whole entry partner): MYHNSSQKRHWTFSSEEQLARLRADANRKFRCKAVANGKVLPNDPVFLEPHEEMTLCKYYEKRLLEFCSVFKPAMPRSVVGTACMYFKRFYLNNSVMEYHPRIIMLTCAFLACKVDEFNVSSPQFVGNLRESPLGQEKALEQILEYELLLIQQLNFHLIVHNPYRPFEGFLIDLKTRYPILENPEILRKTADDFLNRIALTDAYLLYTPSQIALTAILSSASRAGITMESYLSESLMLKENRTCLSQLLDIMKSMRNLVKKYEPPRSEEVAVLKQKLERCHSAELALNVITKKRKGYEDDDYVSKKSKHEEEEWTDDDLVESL
Sequence of CDK7 CyclinH (P51948 whole entry partner): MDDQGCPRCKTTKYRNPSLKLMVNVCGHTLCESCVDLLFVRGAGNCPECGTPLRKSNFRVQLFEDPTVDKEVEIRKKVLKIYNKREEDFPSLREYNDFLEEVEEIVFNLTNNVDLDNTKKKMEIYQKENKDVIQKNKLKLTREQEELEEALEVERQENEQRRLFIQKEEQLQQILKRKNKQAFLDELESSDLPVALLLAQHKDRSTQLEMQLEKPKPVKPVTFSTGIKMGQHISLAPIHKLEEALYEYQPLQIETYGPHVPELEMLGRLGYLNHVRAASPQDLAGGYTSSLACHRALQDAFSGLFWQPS

CDK1/B = CDK1/B (Homo sapiens, UniProt P06493); assay: as above; format: biochemical
Sequence of CDK1/B (P06493 whole entry, species assumed): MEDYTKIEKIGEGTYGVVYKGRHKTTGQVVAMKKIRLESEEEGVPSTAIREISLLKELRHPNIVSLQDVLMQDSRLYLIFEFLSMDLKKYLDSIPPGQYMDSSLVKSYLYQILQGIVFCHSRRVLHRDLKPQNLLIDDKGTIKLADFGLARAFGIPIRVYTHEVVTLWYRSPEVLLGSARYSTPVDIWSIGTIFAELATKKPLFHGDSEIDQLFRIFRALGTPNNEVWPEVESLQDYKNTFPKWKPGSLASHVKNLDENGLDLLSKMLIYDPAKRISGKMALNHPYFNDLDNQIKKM
Sequence of CDK1/B (P14635 whole entry partner, species assumed): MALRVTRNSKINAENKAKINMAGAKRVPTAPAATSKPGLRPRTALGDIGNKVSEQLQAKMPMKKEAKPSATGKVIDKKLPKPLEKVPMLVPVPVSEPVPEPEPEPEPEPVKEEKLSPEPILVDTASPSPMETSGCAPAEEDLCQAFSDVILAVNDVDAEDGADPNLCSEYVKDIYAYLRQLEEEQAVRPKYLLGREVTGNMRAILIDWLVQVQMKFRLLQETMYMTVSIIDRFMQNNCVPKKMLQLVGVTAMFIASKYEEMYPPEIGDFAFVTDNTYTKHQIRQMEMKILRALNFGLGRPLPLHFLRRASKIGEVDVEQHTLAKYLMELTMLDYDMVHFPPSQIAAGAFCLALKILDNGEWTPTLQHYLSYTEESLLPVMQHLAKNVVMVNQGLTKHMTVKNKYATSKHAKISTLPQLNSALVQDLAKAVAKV

all cell lines tested = assay: 2D cell proliferation assay, geometric mean over the cell line panel; format: cell-based; conditions: Table 5 lower part; geometric mean over the 8-line panel; read-out: Geomean abs. IC50 value
Procedure: (§1) Viability of the cells was analyzed by using the CellTiter-Blue® Cell Viability Assay (Promega), and was performed according to manufacturer's instructions. Briefly, cells were harvested from exponential phase cultures (Chapter 6.6), counted and plated in 96-well flat-bottom microtiter plates at a cell density of 4,000-60,000 cells/well in a volume of 140 μl per well. After a 24 hours recovery period, 10 μL cell culture medium (six control wells/plate) or culture medium with test compound were added (Chapter 6.2). The compounds were applied at five concentrations in full-log increments up to 100 μM in duplicate. Cultures were incubated at 37° C. and 5% CO2 in a humidified atmosphere for another three days. After three days of treatment, 20 μl/well CellTiter-Blue® reagent was added. Following incubation with CellTiter-Blue® reagent for up to four hours, fluorescence (FU) was measured by using the Enspire Multimode Plate Reader (excitation λ=570 nm, emission λ=600 nm). For calculations, the mean values of duplicate/sextuplicate (untreated control) data were used.
(§2) IC values are reported as relative IC50 values and absolute IC50 and IC70 values. […] The absolute IC70 value gives the concentration of the test compound that achieves T/C=30%. The relative IC50 value is the concentration of test compound that gives a response halfway between the top and bottom plateau of the sigmoidal concentration-response curve (inflection point of the curve). Calculation was done by 4parameter non-linear curve fit (Oncotest Data Warehouse Software).
(§3) If an IC50 or IC70 value could not be determined within the examined dose range (because a compound was either too active or lacked activity), the lowest or highest concentration studied was used for calculation of the geometric mean value.
The overall potency of a compound was determined by the geometric mean IC50/IC70 values of all individual IC50/IC70 values. In the heatmap representation of IC50 and IC70 values, the distribution of the IC50 or IC70 values obtained for a test compound in the individual cell lines is given in relation to the geometric mean IC50 or IC70 value, obtained over all PDX models tested. The individual IC values range from 1/32-fold geometric mean IC (corresponding to very potent compound activity or high tumor sensitivity) to 32-fold geometric mean IC (corresponding to lack of compound activity or tumor resistance). The heatmap presentation, therefore, represents an antiproliferative “fingerprint” profile of a test compound.

MEXF WM-266-4 = assay: 2D cell proliferation assay (CellTiter-Blue); format: cell-based; conditions: Homo sapiens, 72 h, three days of treatment, read-out: abs. IC50
Procedure: as §1
(§4) An assay was considered fully evaluable if the following quality control criteria were fulfilled: • control/background ratio>3.0-Z′-factor calculated within the assay plate>0.5 [7]—coefficient of variation in the growth control wells <30%
(§5) Drug effects were expressed in terms of the percentage of the fluorescence signal, obtained by comparison of the mean signal in the treated wells with the mean signal of the untreated controls (expressed by the test-versus-control value, T/C-value [%]):
as §2, §3

LXFL NCl-H1299 = assay: 2D cell proliferation assay (CellTiter-Blue); format: cell-based; conditions: 72 h, three days of treatment, read-out: abs. IC50
Procedure: as §1, §4, §5, §2, §3

LXFA A549 = assay: 2D cell proliferation assay (CellTiter-Blue); format: cell-based; conditions: Homo sapiens, 72 h, three days of treatment, read-out: abs. IC50
Procedure: as §1, §4, §5, §2, §3

MAXFLB MCF7 (ER+) = assay: 2D cell proliferation assay (CellTiter-Blue); format: cell-based; conditions: Homo sapiens, 72 h, three days of treatment, read-out: abs. IC50
Procedure: as §1, §4, §5, §2, §3

MAXFTN ZR-75-1 (ER+) = assay: 2D cell proliferation assay (CellTiter-Blue); format: cell-based; conditions: Homo sapiens, 72 h, three days of treatment, read-out: abs. IC50
Procedure: as §1, §4, §5, §2, §3

LEXFAM MV4-11 = assay: 2D cell proliferation assay (CellTiter-Blue); format: cell-based; conditions: Homo sapiens, 72 h, three days of treatment, read-out: abs. IC50
Procedure: as §1, §4, §5, §2, §3

[1] = Table 3, purified enantiomers, read-out: CDK9-T (E1/E2)
[2] = Table 3, purified enantiomers, read-out: CDK6 (E1/E2)
[3] = CDK4 (E1/E2), Table 3, purified enantiomers
[4] = Table 3, purified enantiomers, read-out: CDK2-A (E1/E2)
[5] = Table 4a, read-out: CDK9 CyclinT1 IC50
[6] = Table 4a, read-out: CDK6 CyclinD3 IC50
[7] = CDK4 CyclinD1 IC50, Table 4a, a second value in parentheses for some compounds
[8] = Table 4a, read-out: CDK2 CyclinA IC50

| Compound | IC50 (CDK9-CYCLINT1; [1]) | IC50 (CDK2-CYCLINE) | IC50 (CDK6-CYCLIND3; [2]) | IC50 (CDK4-CYCLIND1; [3]) | IC50 (CDK2-CYCLINA; [4]) | IC50 (CDK9-CYCLINT1; [5]) | IC50 (CDK7 CyclinH; Table 4a) | IC50 (CDK6-CYCLIND3; [6]) | IC50 (CDK4-CYCLIND1; [7]) | IC50 (CDK2-CYCLINA; [8]) | IC50 (LXFL NCl-H1299) | IC50 (LXFA A549) | IC50 (MAXFLB MCF7 (ER+)) | IC50 (LEXFAM MV4-11) | IC50 (all cell lines tested) | IC50 (MEXF WM-266-4) | IC50 (MAXFTN ZR-75-1 (ER+)) | other results |
| --- | --- | --- | --- | --- | --- | --- | --- | --- | --- | --- | --- | --- | --- | --- | --- | --- | --- | --- |
| CC(C)N1CCN(c2ccc(Nc3ncc4c(n3)N(C3CCCC3)C(=O)[C@]3(CCNC3=O)C4)c(F)c2)CC1 [Example D148, (S)-8-cyclopentyl-2-((2-fluoro-4-(4-isopropylpiperazin-1-yl)phenyl)amino)-5,8-dihydro-7H-spiro[pyrido[2,3-d]pyrimidine-6,3′-pyrrolidine]-2′,7-dione] | – | – | – | – | – | 6250 nM and 987 nM | > 100000 nM | 4670 nM | 1270 nM and 188 nM | 83200 nM and > 10000 nM | – | – | – | – | – | – | – | IC50 (CDK1/B; Table 4a): > 10000 nM |
| Cc1cc(Nc2ncc3c(n2)N(C2CCCC2)C(=O)[C@]2(CCNC2=O)C3)ccc1N1CCN(C(C)C)CC1 [Example D158, (S)-8-cyclopentyl-2-((4-(4-isopropylpiperazin-1-yl)-3-methylphenyl)amino)-5,8-dihydro-7H-spiro[pyrido[2,3-d]pyrimidine-6,3′-pyrrolidine]-2′,7-dione] | – | – | – | – | – | 5.25 nM | 120 nM | 2.17 nM | 1.04 nM | 22.2 nM | 257 nM | 554 nM | 55 nM | 38 nM | 301 nM | 451 nM | 5520 nM | – |
| CN1CCN(c2ccc(Nc3ncc4c(n3)N(C3CCCC3)C(=O)[C@]3(CCNC3=O)C4)cc2)CC1 [Example D144, (S)-8-cyclopentyl-2-((4-(4-methylpiperazin-1-yl)phenyl)amino)-5,8-dihydro-7H-spiro[pyrido[2,3-d]pyrimidine-6,3′-pyrrolidine]-2′,7-dione] | – | – | – | – | – | 4.84 nM | 229 nM | 1.54 nM | – | 29.2 nM | 219 nM | 1290 nM | 114 nM | 10 nM | 475 nM | 358 nM | 100000 nM | – |
| CS(=O)(=O)c1ccc(Nc2ncc3c(n2)N(C2CCCC2)C(=O)[C@]2(CCNC2=O)C3)cc1 [Example D114, (S)-8-cyclopentyl-2-((4-(methylsulfonyl)phenyl)amino)-5,8-dihydro-7H-spiro[pyrido[2,3-d]pyrimidine-6,3′-pyrrolidine]-2′,7-dione] | – | – | – | – | – | – | – | – | – | – | – | – | – | – | – | – | – | IC50 (CDK9-CYCLINT1; Table 4b, lower part, read-out: CDK9 CyclinT1 IC50): < 3.2 nM; IC50 (CDK7 CyclinH; Table 4b, lower part): 1670 nM; IC50 (CDK4-CYCLIND1; CDK4 CyclinD1 IC50, Table 4b, lower part, a second value in parentheses for some compounds): < 3.2 nM; IC50 (CDK1/B; Table 4b, lower part): 37.9 nM; IC50 (CDK2-CYCLINA; Table 4b, lower part, read-out: CDK2 CyclinA IC50): < 3.2 nM |

Further lines, with some results ahead:

| IC50 (CDK9-CYCLINT1; [1]) | IC50 (CDK2-CYCLINE) | IC50 (CDK6-CYCLIND3; [2]) | IC50 (CDK4-CYCLIND1; [3]) | IC50 (CDK2-CYCLINA; [4]) | IC50 (CDK9-CYCLINT1; [5]) | IC50 (CDK7 CyclinH; Table 4a) | IC50 (CDK6-CYCLIND3; [6]) | IC50 (CDK4-CYCLIND1; [7]) | IC50 (CDK2-CYCLINA; [8]) | IC50 (LXFL NCl-H1299) | IC50 (LXFA A549) | IC50 (MAXFLB MCF7 (ER+)) | IC50 (LEXFAM MV4-11) | Compound | IC50 (all cell lines tested) | IC50 (MEXF WM-266-4) | IC50 (MAXFTN ZR-75-1 (ER+)) | other results |
| --- | --- | --- | --- | --- | --- | --- | --- | --- | --- | --- | --- | --- | --- | --- | --- | --- | --- | --- |
| 198 nM | 4240 nM | 3.26 nM | 2.96 nM | 3120 nM | – | – | – | – | – | – | – | – | – | O=C1NCC[C@@]12Cc1cnc(Nc3ccc(N4CCNCC4)cn3)nc1N(C1CCCC1)C2=O [Example D58, (S)-8-cyclopentyl-2-((5-(piperazin-1-yl)pyridin-2-yl)amino)-5,8-dihydro-7H-spiro[pyrido[2,3-d]pyrimidine-6,3′-pyrrolidine]-2′,7-dione] | – | – | – | – |
| 1240 nM | 5660 nM | 360 nM | 136 nM | 3410 nM | – | – | – | – | – | – | – | – | – | O=C1NCC[C@]12Cc1cnc(Nc3ccc(N4CCNCC4)c(F)c3)nc1N(C1CCCC1)C2=O [Example D49, (R)-8-cyclopentyl-2-((3-fluoro-4-(piperazin-1-yl)phenyl)amino)-5,8-dihydro-7H-spiro[pyrido[2,3-d]pyrimidine-6,3′-pyrrolidine]-2′,7-dione] | – | – | – | – |
